Reference: patent US6337344B1, “Indole derivatives as inhibitors or factor Xa” (Aventis Pharma Deutschland GmbH, priority 1997, dated 2002)
Where a name gives a salt, the structure may show the parent alone.

Assays:
human factor Xa = target: T1, human factor Xa (Homo sapiens, UniProt P00742); experiment: Factor Xa assay (Test 1, a.), chromogenic substrate S-2765; type: biochemical
T1 construct: purchased Enzyme Research Laboratories, Inc; South Bend, Ind
Method: Purified enzymes are used in chromogenic assays. To determine the inhibition constant Ki, the IC50 value is corrected for competition with substrate using the formula
Ki'IC50×(1/{1+((substrate concentration)/substrate Km)})
wherein Km is the Michaelis-Menten constant (Chen and Prusoff, Biochem. Pharmacol. 22 (1973), […] which is incorporated herein by reference).
TBS-PEG buffer (50 mM Tris-Cl, pH 7.8, 200 mM NaCl, 0.05% (w/v) PEG-8000, 0.02% (w/v) NaN3) is used for this assay.
The assay is performed by pre-incubating the compound of formula I plus enzyme for 10 min. Then the assay is initiated by adding substrate to obtain a final volume of 100 μl. The initial velocity of chromogenic substrate hydrolysis is measured by the change in absorbance at 405 nm using a Bio-tek Instruments kinetic plate reader (Ceres UV900HDi) at 25° C. during the linear portion of the time course (usually 1.5 min after addition of substrate). The concentration of inhibitor that causes a 50% decrease in the rate of substrate hydrolysis is predicted by linear regression after plotting the relative rates of hydrolysis (compared to the uninhibited control) versus the log of the concentration of the compound of formula I. The enzyme concentration is 0.5 nM and substrate concentration is 140 μM.
The inhibition constants were determined as described above (Test 1, a., Factor Xa Assay).

factor Xa = conditions: values of known factor Xa inhibitors stated in the background; cited from earlier work

T1 sequence (P00742 235-488 limits assumed): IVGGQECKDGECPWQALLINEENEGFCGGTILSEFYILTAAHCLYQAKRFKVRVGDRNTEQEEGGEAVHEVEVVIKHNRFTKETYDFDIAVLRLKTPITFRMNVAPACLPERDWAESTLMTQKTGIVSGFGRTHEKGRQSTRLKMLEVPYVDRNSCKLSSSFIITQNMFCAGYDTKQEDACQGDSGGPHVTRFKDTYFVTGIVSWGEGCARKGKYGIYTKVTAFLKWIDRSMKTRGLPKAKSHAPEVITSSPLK
T1 sequence (P00742 41-179 partner limits assumed): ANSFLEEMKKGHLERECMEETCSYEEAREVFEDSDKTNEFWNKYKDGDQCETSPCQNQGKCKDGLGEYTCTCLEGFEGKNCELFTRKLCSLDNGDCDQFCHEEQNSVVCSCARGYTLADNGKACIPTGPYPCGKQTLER

Molecule	Ki (human factor Xa) [nM]	melting point	Ki (factor Xa) [nM]
CC(=O)O.CC(=O)[O-].CC(C)(C)OC(=O)Nc1ccc2c(c1)cc(C(=O)NCc1ccc([N+](C)(C)C)cc1)n2Cc1cccc(C(=N)N)c1 [Example 58, [4-({[1-(3-Amidino-benzyl)-5-tert-butoxycarbonylamino-1H-indole-2-carbonyl]-amino}-methyl)-phenyl]-trimethyl-ammonium acetate acetic acid salt]	14	146 °C (dec.)	–
CC(NC(=O)c1cc2ccccc2n1Cc1cccc(C(=N)N)c1)c1cc[n+](C)cc1 (racemic) [Example 2, (RS)-4-(1-{[1-(3-Amidino-benzyl)-1H-indole-2-carbonyl]-amino}-ethyl)-1-methylpyridinium trifluoroacetate trifluoroacetic acid salt, trifluoroacetate trifluoroacetic acid …]	100	–	–
COC(=O)c1cccc(CNC(=O)c2cc3c(O)cccc3n2Cc2cccc(C(=N)N)c2)c1 [Example 132]	2000	–	–
N=C(N)NCCC[C@H](NC(=O)c1cc2ccccc2n1Cc1ccc(C(=N)N)cc1)C(N)=O [Example 81, 1-(4-Amidinobenzyl)-1H-indole-2-carbonyl-L-arginyl amide trifluoroacetic acid salt]	63000	–	–
C[C@@H](NC(=O)c1cc2cc(OCc3ccccc3)ccc2n1Cc1cccc(C(N)=S)c1)c1ccccc1 [21(4), (R)-5-Benzyloxy-1-(3-thiocarbamoyl-benzyl)-1H-indole-2-carboxylic acid (1-phenyl-ethyl)amide]	4800	–	–
Cc1cccc2c1cc(C(=O)NCc1cccc(C(=N)N)c1)n2Cc1cccc(C(=N)N)c1.O=C(O)C(F)(F)F.O=C(O)C(F)(F)F [Example 47, 1-(3-Amidino-benzyl)-4-methyl-1H-indole-2-carboxylic acid 3-amidino-benzyl amide trifluoroacetic acid salt]	7	242 to 243 °C	–
C[N+](C)(C)c1ccc(CNC(=O)c2cc3ccccc3n2Cc2cccc(C(=N)N)c2)cc1 [Example 4, [4-({[1-(3-Amidino-benzyl)-1H-indole-2-carbonyl]-amino}-methyl)-phenyl]-trimethyl-ammonium trifluoroacetate trifluoroacetic acid salt, trifluoroacetate trifluoroacetic acid …]	90	–	–
COc1cccc2c1cc(C(=O)NC(c1ccccc1)c1cc[n+](C)cc1)n2Cc1cccc(C(=N)N)c1.O=C(O)C(F)(F)F.O=C([O-])C(F)(F)F (racemic) [Example 24, (RS)-4-({[1-(3-Amidino-benzyl)-4-methoxy-1H-indole-2-carbonyl]-amino}-phenyl-methyl)-1-methyl-pyridinium trifluoroacetate trifluoroacetic acid salt, trifluoroacetate trifluoroacetic acid …]	110	–	–
Cc1cc(CNC(=O)c2cc3c(O)cccc3n2Cc2cccc(C(=N)N)c2)cc(C(F)(F)F)c1 [Example 112]	13	–	–
N=C(N)c1ccc(C(=O)N2CCc3c(n(Cc4cccc(C(=N)N)c4)c4ccccc34)C2)cc1 [Example 84, 2-(4-Amidino-benzoyl)-9-(3-amidino-benzyl)-1,2,3,4-tetrahydro-9H-pyrido[3,4-b]indole trifluoroacetic acid salt]	900	–	–
N=C(N)c1cccc(Cn2c(C(=O)NCc3cc(Cl)cc(Cl)c3)cc3c(O)cccc32)c1 [Example 120]	4.8	–	–
N=C(N)c1ccc(CNC(=O)c2cc3c(O)cccc3n2Cc2cccc(C(=N)N)c2)cc1.O=C(O)C(F)(F)F.O=C(O)C(F)(F)F [Example 78, 1-(3-Amidino-benzyl)-4-hydroxy-1H-indole-2-carboxylic acid 4-amidino-benzylamide trifluoroacetic acid salt]	210	155 to 157 °C	–
Cc1cccc2c1cc(C(=O)NCc1ccc([N+](C)(C)C)cc1)n2Cc1cccc(C(=N)N)c1.O=C(O)C(F)(F)F.O=C([O-])C(F)(F)F [Example 35, [4-({[1-(3-Amidino-benzyl)-4-methyl-1H-indole-2-carbonyl]-amino}-methyl)-phenyl]-trimethyl-ammonium trifluoroacetate trifluoroacetic acid salt, trifluoroacetate trifluoroacetic acid …]	9	–	–
CN1CCC(C(NC(=O)c2cc3ccccc3n2Cc2cccc(C(=N)N)c2)c2ccc3cc(Cl)ccc3c2)CC1.O=C(O)C(F)(F)F.O=C(O)C(F)(F)F (racemic) [Example 27, (RS)-1-(3-Amidino-benzyl)-1H-indole-2-carboxylic acid ((6-chloro-2-naphthyl)-(1-methyl-piperidin-4-yl)-methyl)amide trifluoroacetic acid salt]	610	110 to 120 °C	–
N=C(N)c1cccc(CNC(=O)c2c(Cl)c3ccccc3n2Cc2cccc(C(=N)N)c2)c1 [Example 115]	9	–	–
C[N+](C)(C)c1ccc(CNC(=O)c2c(Cl)c3ccccc3n2Cc2cccc(C(=N)N)c2)cc1 [Example 106]	40	–	–
C[N+](C)(C)Cc1ccc(CNC(=O)c2cc3ccccc3n2Cc2cccc(C(=N)N)c2)cc1 [Example 6, [4-({[1-(3-Amidino-benzyl)-1H-indole-2-carbonyl]-amino}-methyl)-benzyl]-trimethyl-ammonium trifluoroacetate trifluoroacetic acid salt, trifluoroacetate trifluoroacetic acid …]	400	–	–
tick anticoagulant peptide (YNRLCIKPRDWIDECDSNEGGERAYFRNGKGGCDSFWICPEDHTGADYYSSYRDCFNACI; UniProt P17726 1-60, looked up) [TAP]	–	–	~0.5
C[n+]1ccc(CNC(=O)c2cc3cc(N)ccc3n2Cc2cccc(C(=N)N)c2)cc1.O=C(O)C(F)(F)F.O=C(O)C(F)(F)F.O=C([O-])C(F)(F)F	–	115 °C	–
CC(=O)O.CC(=O)[O-].C[N+](C)(C)c1ccc(CNC(=O)c2cc3c(O)cccc3n2Cc2cccc(C(=N)N)c2)cc1 [Example 39, [4-({[1-(3-Amidino-benzyl)-4-hydroxy-1H-indole-2-carbonyl]-amino}-methyl)-phenyl]-trimethyl-ammonium acetate acetic acid salt]	7	113 °C (dec.)	–
N=C(N)c1cccc(Cn2c(C(=O)NCCc3ccc(Cl)cc3Cl)cc3c(O)cccc32)c1.O=C(O)C(F)(F)F	–	144 °C	–
N=C(N)c1ccc(C=C2CCCCC(=Cc3ccc(C(=N)N)cc3)C2=O)cc1 [2,7-bis-(4-amidinobenzylidene)-cycloheptanone, reference compound]	–	–	~20
N=C(N)c1cccc(Cn2c(C(=O)NC(c3ccccc3)c3ccncc3)cc3ccccc32)c1.O=C(O)C(F)(F)F.O=C(O)C(F)(F)F (racemic) [Example 23, (RS)-1-(3-Amidino-benzyl)-1H-indole-2-carboxylic acid α-(4-pyridyl)-benzyl amide trifluoroacetic acid salt]	7000	88 to 92 °C	–
C[N+](C)(C)c1ccc(CNC(=O)c2cc3cc(OCc4ccccc4)ccc3n2Cc2cccc(C(=N)N)c2)cc1.O=C(O)C(F)(F)F.O=C([O-])C(F)(F)F [Example 56, [4-({[5-Benzyloxy-1-(3-amidino-benzyl)-1H-indole-2-carbonyl]-amino}-methyl)-phenyl]-trimethyl-ammonium trifluoroacetate trifluoroacetic acid salt]	–	60 °C (dec.)	–
CC[N+](C)(C)c1ccc(CNC(=O)c2cc3cc(F)ccc3n2Cc2cccc(C(=N)N)c2)cc1.O=C(O)C(F)(F)F.O=C([O-])C(F)(F)F	–	73 to 75 °C (dec.)	–
antistasin (protein, UniProt P15358 18-136, looked up) Antistasin: QGPFGPGCEEAGCPEGSACNIITDRCTCSGVRCRMHCPHGFQRSRYGCEFCKCRLEPMKATCDISECPEGMMCSRLTNKCDCKIDINCRKTCPNGLKRDKLGCEYCECRPKRKLIPRLS	–	–	0.05
